In ChEMBL document CHEMBL5360569, “Inhibition of the pyroptosis-associated inflammasome pathway: The important potential mechanism of ginsenosides in ameliorating diabetes and its complications” (Eur J Med Chem, 2023):

Assay: Cmax in po dosed human plasma
Format: ADME, organism-based
Design: route po

| Structure (SMILES) | Cmax |
| --- | --- |
| CC(C)=CCC[C@](C)(O[C@H]1O[C@H](CO)[C@@H](O)[C@H](O)[C@H]1O)[C@H]1CC[C@]2(C)[C@@H]1[C@H](O)C[C@@H]1[C@@]3(C)CC[C@H](O)C(C)(C)[C@@H]3CC[C@]12C | 8.35 ng/mL |
| CC(C)=CCC[C@](C)(O[C@@H]1O[C@H](CO[C@@H]2O[C@H](CO)[C@@H](O)[C@H](O)[C@H]2O)[C@@H](O)[C@H](O)[C@H]1O)[C@H]1CC[C@]2(C)[C@@H]1[C@H](O)C[C@@H]1[C@@]3(C)CC[C@H](O[C@@H]4O[C@H](CO)[C@@H](O)[C@H](O)[C@H]4O[C@@H]4O[C@H](CO)[C@@H](O)[C@H](O)[C@H]4O)C(C)(C)[C@@H]3CC[C@]12C [GINSENOSIDE RB1] | 3.94 ng/mL |
